# Experimental data published in PMC9368981, “The γ-Core Motif Peptides of AMPs from Grasses Display Inhibitory Activity against Human and Plant Pathogens” (International Journal of Molecular Sciences, 2022).
# Where a SMILES comes first, the peptide text is derived from it. Where no end group is shown, it is not given here.
# Assays:
# [1] = tested on: Pseudomonas savastanoi pv. savastanoi VKM B-1546; assay type: cell-based; settings: 300 µM peptide; 30 °C, 24 h, absorbance 594 nm; vs control without peptide; triplicate, mean
# Method: (§1) The antimicrobial activity of synthetic peptides was tested against a panel of human and plant pathogens. Among them were the yeasts Candida albicans VKM Y-2994 and Cryptococcus neoformans VKM Y-2755, the plant pathogenic bacteria Clavibacter michiganensis subsp. michiganensis VKM Ac-1403, Pseudomonas savastanoi pv. savastanoi VKM B-1546 and Pectobacterium carotovorum subsp. carotovorum VKM B-1247, and four Fusarium species (F. oxysporum VKM F-137, F. culmorum VKM F-2303, F. solani VKM F-142 and F. verticillioides VKM F-670), which cause diseases in plants and humans. The antimicrobial activity was first measured at the peptide concentration of 300 µM (Figure 3).
# (§2) The antimicrobial activity of synthetic peptides was tested against the yeasts Candida albicans VKM Y-2994 and Cryptococcus neoformans VKM Y-2755, the bacteria Pseudomonas savastanoi pv. savastanoi VKM B-1546, Pectobacterium carotovorum subsp. carotovorum VKM B-1247 and Clavibacter michiganensis subsp. michiganensis VKM Ac-1403, and four Fusarium species: F. culmorum VKM F-2303, F. oxysporum VKM F-137, F. solani VKM F-142 and F. verticillioides VKM F-670. All cultures were obtained from the All-Russian Collection of Microorganisms (VKM). The details of the production and storage of cultures of microorganisms used in this study are described at the VKM Home page. Antimicrobial assays were accomplished according to the procedure described earlier. In short, yeasts were grown on the YPD-P medium and the bacteria P. carotovorum and Cl. michiganensis were cultured on a modified YPD-P medium. The Fusarium fungi were grown on potato dextrose agar at 25 °C for 7–8 days, and spores were washed off from the surface of the mycelia with sterile, distilled water. The antimicrobial activity of the peptides was measured in immunoassay microtiter plates according to the protocol of Broekaert et al.. With yeasts and bacteria, each well contained 10 µL of the tested peptide solution (final concentrations of 10–300 µM) in water, 80 µL of the medium and 10 µL of the microbial suspension. The plates were incubated at 30 °C for 24 h, and the absorbance of the suspension was measured on an Efos 9305 spectrophotometer (Sapphire, Moscow, Russia) at 594 nm. For Fusarium species, the wells of a microtiter plate were filled with 90 µL of the fungal spore suspension in half-strength potato dextrose broth at a concentration of 2000–3000 spores in 100 µL and 10 µL of aqueous solutions of peptides at final concentrations of 10–300 µM. After 38 h of incubation, the absorbance was recorded at 595 nm on a FilterMax F5 Multi-Mode Microplate Reader (Molecular Devices, San Jose, CA, USA). Antimicrobial activity is expressed in IC50 values, which show the concentration necessary for 50% inhibition of the pathogen growth; this was determined from a graph showing the activity dependence on peptide concentration.
# (§3) For each pathogen, experiments on the peptide antimicrobial activity evaluation were carried out in triplicate per treatment. Mean values, standard deviations (SD), and the significance of differences (p ≤ 0.05) of the means between treatments and controls (t-test for independent variables) were determined using STATISTICA v. 6.1 software (StatSoft Inc., Tulsa, OK, USA).
# [2] = tested on: C. albicans cells; assay: Propidium iodide staining, fluorescence microscopy; assay type: cell-based, Candida albicans; settings: peptide 300 µM, 30 °C, 1 h, 0.03 mM PI 15 min
# Method: (§4) Their ability to disturb the integrity of pathogen membranes was assayed by staining with propidium iodide of C. albicans and Cr. neoformans cells preliminarily incubated with the peptides. The results were visualized by fluorescent microscopy and quantified by flow cytometry (Figure 5, Figure 6 and Figure 7).
# (§5) Staining of yeast cells with propidium iodide in the presence of the γ-core peptides was carried out according to the protocol described earlier. C. albicans or Cr. neoformans cells (24 h culture in YPD-P at a cell concentration of 2 × 10^8/mL) were incubated with the peptide at a concentration of 300 µM at 30 °C for 1 h. After incubation, 1 mL of the cells was stained with 0.03 mM propidium iodide (Sigma, St. Louis, MO, USA). The staining proceeded for 15 min at 30 °C. The fluorescence was recorded on an AXIO Imager A1 fluorescence microscope (ZEISS, Göttingen, Germany) using a Zeiss filter set 56 HE.
# [3] = tested on: Cr. neoformans cells; assay: Propidium iodide staining, fluorescence microscopy; assay type: cell-based, Cryptococcus neoformans; settings: peptide 300 µM, 30 °C, 1 h, 0.03 mM PI 15 min
# Method: as §4, §5
# [4] = tested on: Candida albicans VKM Y-2994; assay type: cell-based; settings: for Inhibition of C. albicans at the highest tested concentration: inhibition curves (Figure 4), highest tested concentration (300 µM)
# Method: as §1, §2, §3
# [5] = tested on: F. verticillioides VKM F-670; assay type: cell-based, Fusarium verticillioides
# Method: as §1, §2, §3
# [6] = tested on: Pectobacterium carotovorum subsp. carotovorum VKM B-1247; settings: 30 °C, 24 h, absorbance 594 nm
# Method: All cultures were obtained from the All-Russian Collection of Microorganisms (VKM).
# Mean values, standard deviations (SD), and the significance of differences (p ≤ 0.05) of the means between treatments and controls (t-test for independent variables) were determined using […] v. 6.1 software (StatSoft Inc., Tulsa, OK, USA).
# [7] = tested on: Cryptococcus neoformans VKM Y-2755; assay type: cell-based
# Method: as §1, §2, §3
# [8] = tested on: Cr. neoformans cells; assay: Propidium iodide penetration, flow cytometry; assay type: cell-based, Cryptococcus neoformans; settings: 28 °C, 2 h; for Penetration of propidium iodide (PI) into Cr. neoformans cells: peptide 300 µM in water, PI 2 µg/mL, FL2 (488/585 nm); for Number of Cr. neoformans cells in flow cytometry: peptide 300 µM
# Method: as §4
# For flow cytometry experiments with Cr. neoformans, the yeasts were grown on the YPD medium at 28 °C for 48 h. After that, the cells were centrifuged at 12,000× g for 3 min, washed with MiliQ water and incubated with the peptides dissolved in water at a concentration of 300 µM at 28 °C for 2 h. The cells were stained with propidium iodide by direct addition of the dye to the incubation medium (final concentration of 2 µg/mL) and measured on a NovoCyte Flow cytometer (Agilent, Santa Clara, CA, USA) using the channel FL2 (488 nm excitation and 585 nm emission). The sample without peptides was used as a control.
# [9] = inhibition curves (Figure 4), highest tested concentration (300 µM)
molecule,measurement,setting,value
CC[C@H](C)[C@H](NC(=O)[C@H](CCCCN)NC(=O)[C@H](CS)NC(=O)[C@H](Cc1ccc(O)cc1)NC(=O)CN)C(=O)N[C@@H](CO)C(=O)N[C@@H](CCCNC(=N)N)C(=O)N[C@@H](CS)C(=O)N[C@H](C(=O)N[C@@H](CS)C(=O)N[C@@H](CCC(N)=O)C(=O)N[C@@H](CCCNC(=N)N)C(=O)N[C@@H](CCC(=O)O)C(=O)N[C@@H](CS)C(=O)O)[C@@H](C)O [DEFL1-11_55-68] (H-GYCKISRCTCQREC-OH; N-terminus and C-terminus assumed),"Pathogen inhibition, % (Ps. savastanoi)",[1],failed to suppress
C[C@@H](O)[C@H](NC(=O)[C@H](CS)NC(=O)[C@H](Cc1ccccc1)NC(=O)[C@H](CS)NC(=O)[C@H](CCCNC(=N)N)NC(=O)[C@H](CCCNC(=N)N)NC(=O)[C@H](CCCNC(=N)N)NC(=O)[C@H](Cc1ccccc1)NC(=O)CNC(=O)[C@H](CCCNC(=N)N)NC(=O)[C@H](CS)NC(=O)[C@H](CCCCN)NC(=O)CN)C(=O)N[C@H](C(=O)N[C@@H](Cc1c[nH]cn1)C(=O)N[C@@H](CS)C(=O)N[C@@H](Cc1c[nH]cn1)C(=O)N[C@@H](Cc1c[nH]cn1)C(=O)O)[C@@H](C)O [DEFL1-16_65-82] (H-GKCRGFRRRCFCTTHCHH-OH; N-terminus and C-terminus assumed),Membrane permeabilization of C. albicans cells (PI staining),[2],induced membrane permeabilization
same,Membrane permeabilization of Cr. neoformans cells (PI staining),[3],induced membrane permeabilization
C[C@@H](O)[C@H](NC(=O)[C@H](CS)NC(=O)[C@H](CCCNC(=N)N)NC(=O)[C@H](CCCNC(=N)N)NC(=O)[C@H](Cc1ccccc1)NC(=O)[C@H](CCCCN)NC(=O)[C@H](CS)NC(=O)[C@H](Cc1ccc(O)cc1)NC(=O)CN)C(=O)N[C@@H](CS)C(=O)N[C@@H](CCC(N)=O)C(=O)N[C@@H](CCCNC(=N)N)C(=O)N[C@@H](CCC(=O)O)C(=O)N[C@@H](CS)C(=O)O [DEFL1-32_55-68] (H-GYCKFRRCTCQREC-OH; N-terminus and C-terminus assumed),Inhibition of C. albicans at the highest tested concentration,[4],92%
same,Membrane permeabilization of C. albicans cells (PI staining),[2],induced membrane permeabilization
same,Membrane permeabilization of Cr. neoformans cells (PI staining),[3],induced membrane permeabilization
CC(C)C[C@H](NC(=O)[C@H](CCCNC(=N)N)NC(=O)[C@H](Cc1c[nH]cn1)NC(=O)[C@H](CO)NC(=O)[C@H](CC(N)=O)NC(=O)[C@H](CS)NC(=O)[C@H](CCC(=O)O)NC(=O)CN)C(=O)N[C@@H](CCC(=O)O)C(=O)N[C@@H](CCCNC(=N)N)C(=O)N[C@@H](CCCCN)C(=O)N[C@@H](CS)C(=O)N[C@@H](Cc1ccccc1)C(=O)N[C@@H](CS)C(=O)N[C@@H](CCCCN)C(=O)N[C@@H](CCCNC(=N)N)C(=O)N[C@H](C(=O)N[C@@H](CS)C(=O)O)[C@@H](C)O [DEFL1-40_65-82] (H-GECNSHRLERKCFCKRTC-OH),"Pathogen inhibition, % (C. albicans)","[4]; 300 µM peptide, YPD-P medium, 30 °C, 24 h, absorbance 594 nm, vs control without peptide, triplicate, mean",failed to suppress
C[C@H](NC(=O)[C@@H](N)CS)C(=O)NCC(=O)N[C@@H](CCCNC(=N)N)C(=O)NCC(=O)N[C@@H](CCC(N)=O)C(=O)N1CCC[C@H]1C(=O)N[C@@H](Cc1ccc(O)cc1)C(=O)N[C@H](C(=O)NCC(=O)N[C@@H](CO)C(=O)NCC(=O)N[C@@H](CS)C(=O)O)[C@@H](C)O [DEFL4-8_82-94] (H-CAGRGQPYTGSGC-OH; N-terminus and C-terminus assumed),Maximum inhibition of F. verticillioides at the highest tested concentration,[5]; [9],26%
same,IC50,"[5]; peptide 10–300 µM, 38 h, absorbance 595 nm, from activity vs concentration graph, mean ± SD",> 100 µM
same,"Pathogen inhibition, % (P. carotovorum)","[6]; 300 µM peptide, modified YPD-P medium, vs control without peptide, triplicate, mean",42%
same,IC50,"[6]; read-out: IC50, μM P. carotovorum, peptide 10–300 µM, from activity vs concentration graph, mean ± SD",> 100 µM
CC(C)[C@H](NC(=O)[C@H](CS)NC(=O)[C@H](CCCNC(=N)N)NC(=O)CNC(=O)CNC(=O)[C@H](CS)NC(=O)[C@H](CS)NC(=O)[C@@H]1CCCN1C(=O)[C@H](Cc1ccccc1)NC(=O)[C@@H](NC(=O)[C@@H](NC(=O)[C@H](CCCNC(=N)N)NC(=O)[C@H](CS)NC(=O)[C@@H](N)CCCCN)[C@@H](C)O)[C@@H](C)O)C(=O)O [Tk-AMP-K2_10-23] (H-KCRTTFPCCGGRCV-OH; N-terminus and C-terminus assumed),Inhibition of Cr. neoformans at the highest tested concentration,[7]; [9],complete inhibition
same,Membrane permeabilization of C. albicans cells (PI staining),[2],induced membrane permeabilization
same,Penetration of propidium iodide (PI) into Cr. neoformans cells,[8],66.86%
same,Number of Cr. neoformans cells in flow cytometry,[8],reduction in the number of Cr. neoformans cells
same,Membrane permeabilization of Cr. neoformans cells (PI staining),[3],induced membrane permeabilization
CSCC[C@H](NC(=O)[C@H](CS)NC(=O)[C@H](C)NC(=O)CNC(=O)[C@H](CCCNC(=N)N)NC(=O)[C@H](CCCCN)NC(=O)[C@H](C)NC(=O)[C@H](CCCNC(=N)N)NC(=O)[C@H](CO)NC(=O)[C@H](CCCNC(=N)N)NC(=O)[C@H](C)NC(=O)[C@H](CS)NC(=O)[C@H](CCCNC(=N)N)NC(=O)[C@@H](NC(=O)[C@H](C)NC(=O)[C@H](CS)NC(=O)[C@H](CCCCN)NC(=O)CN)C(C)C)C(=O)N[C@@H](CCCCN)C(=O)O [TkSN1_39-57] (H-GKCAVRCARSRAKRGACMK-OH; N-terminus and C-terminus assumed),Inhibition of C. albicans at the highest tested concentration,[4],complete inhibition
same,Membrane permeabilization of C. albicans cells (PI staining),[2],induced membrane permeabilization
same,Membrane permeabilization of Cr. neoformans cells (PI staining),[3],induced membrane permeabilization
AGHGKRYTGRG [HvDEFL4-1_67-77],Membrane permeabilization of C. albicans cells (PI staining),[2],induced membrane permeabilization
same,Penetration of propidium iodide (PI) into Cr. neoformans cells,[8],37.84%
same,Number of Cr. neoformans cells in flow cytometry,[8],reduction in the number of Cr. neoformans cells
same,Membrane permeabilization of Cr. neoformans cells (PI staining),[3],induced membrane permeabilization
PARGRPYTGRA [DEFL4-37_91-101],Activity against Cr. neoformans relative to DEFL4-37_90-102,"[7]; 300 µM (Figure 3), times less active",10 times
